The values that follow are results of earlier work, collected in patent US11173186B2, “Dosing regime and formulations for type B adenovirus” (PSIOXUS THERAPEUTICS LIMITED, priority 2013, dated 2021).

For the series the following is noted: interim analysis; intratumoural talimogene laherparepvec vs subcutaneous GM-CSF.

With “GM-CSF: subcutaneously administered GM-CSF, comparator in the OPTiM trial”, the durable response rate is listed as 2%.
